Results reported in the NIST ThermoML archive (doi:10.1016/j.tca.2011.08.025).

Assay: molar heat capacity at constant pressure
Details: 101.33 kPa, Crystal, Relaxation calorimetry

[Al] [aluminum]
Details | molar heat capacity at constant pressure [J/K/mol]
5.284 K | 0.011
9.67 K | 0.035
14.08 K | 0.085
18.45 K | 0.181
22.82 K | 0.341
27.12 K | 0.602
31.49 K | 0.992
35.83 K | 1.526
40.18 K | 2.149
44.52 K | 2.841
48.85 K | 3.64
53.19 K | 4.446
57.52 K | 5.317
61.85 K | 6.177
66.18 K | 7.052
70.51 K | 7.917
74.83 K | 8.774
79.16 K | 9.582
83.49 K | 10.38
87.82 K | 11.08
92.15 K | 11.77
96.47 K | 12.46
100.7 K | 13.15
105.1 K | 13.74
109.4 K | 14.29
113.7 K | 14.88
118 K | 15.37
122.4 K | 15.87
126.7 K | 16.34
131 K | 16.78
135.3 K | 17.22
139.7 K | 17.63
144 K | 17.97
148.3 K | 18.36
152.6 K | 18.61
156.9 K | 18.93
161.2 K | 19.21
165.6 K | 19.46
169.9 K | 19.74
174.2 K | 20.03
178.5 K | 20.29
182.8 K | 20.49
187.1 K | 20.74
191.4 K | 20.96
195.7 K | 21.15
200.1 K | 21.31
204.4 K | 21.47
208.7 K | 21.66
213 K | 21.83
217.3 K | 22.01
221.7 K | 22.2
226 K | 22.34
230.3 K | 22.46
234.6 K | 22.58
238.9 K | 22.73
243.3 K | 22.82
247.6 K | 22.99
251.9 K | 23.05
256.2 K | 23.21
260.5 K | 23.34
264.9 K | 23.48
269.2 K | 23.61
273.5 K | 23.7
277.8 K | 23.73
282.1 K | 23.82
286.4 K | 23.93
290.8 K | 24.02
295.1 K | 24.12
299.4 K | 24.14
303.8 K | 24.21

[Nd] [neodymium]
Details | molar heat capacity at constant pressure [J/K/mol]
2.151 K | 0.8396
2.367 K | 1.016
2.581 K | 1.201
2.795 K | 1.394
3.01 K | 1.604
3.226 K | 1.824
3.438 K | 2.061
3.649 K | 2.3
3.86 K | 2.548
4.072 K | 2.809
4.282 K | 3.093
4.49 K | 3.38
4.705 K | 3.673
4.913 K | 3.971
5.122 K | 4.282
5.177 K | 4.343
5.328 K | 4.571
5.524 K | 4.815
5.736 K | 5.023
5.948 K | 5.221
6.156 K | 5.44
6.362 K | 5.633
6.569 K | 5.743
6.774 K | 5.889
6.98 K | 6.064
7.186 K | 6.234
7.391 K | 6.437
7.596 K | 6.646
7.801 K | 6.846
8.006 K | 7.013
8.204 K | 6.953
8.407 K | 6.62
8.613 K | 6.23
8.819 K | 5.945
9.025 K | 5.776
9.228 K | 5.667
9.431 K | 5.598
9.437 K | 5.599
9.634 K | 5.571
9.84 K | 5.554
10.04 K | 5.573
10.2 K | 5.561
10.39 K | 5.603
10.6 K | 5.69
10.81 K | 5.744
11.01 K | 5.812
11.21 K | 5.88
11.41 K | 5.952
11.63 K | 6.046
11.84 K | 6.143
12.03 K | 6.237
12.24 K | 6.337
12.44 K | 6.442
12.66 K | 6.573
12.86 K | 6.675
13.06 K | 6.796
13.26 K | 6.922
13.47 K | 7.055
13.68 K | 7.208
13.77 K | 7.145
13.88 K | 7.299
14.1 K | 7.441
14.28 K | 7.621
14.48 K | 7.747
14.69 K | 7.885
14.92 K | 8.025
15.12 K | 8.197
15.23 K | 8.285
15.32 K | 8.377
15.77 K | 8.706
16.3 K | 9.115
16.83 K | 9.61
17.36 K | 10.08
17.88 K | 10.46
18.09 K | 10.52
18.42 K | 10.87
18.95 K | 11.22
19.48 K | 11.63
20.09 K | 11.62
20.59 K | 11.44
21.1 K | 10.32
21.61 K | 10.49
22.17 K | 11.13
22.39 K | 11.25
26.7 K | 13.57
31.01 K | 15.8
35.3 K | 17.93
39.6 K | 19.66
43.89 K | 21.19
48.19 K | 22.54
52.48 K | 23.47
56.77 K | 24.17
61.06 K | 24.73
65.35 K | 25.19
69.65 K | 25.58
73.95 K | 25.83
78.25 K | 25.98
82.54 K | 26.16
86.85 K | 26.23
91.14 K | 26.36
95.45 K | 26.37
99.73 K | 26.49
104 K | 26.61
108.3 K | 26.65
112.6 K | 26.74
116.9 K | 26.72
121.2 K | 26.78
125.5 K | 26.72
129.8 K | 26.67
134 K | 26.77
138.3 K | 26.81
142.6 K | 26.97
146.8 K | 26.95
151.1 K | 27.04
155.4 K | 27.01
159.7 K | 26.93
164 K | 26.99
168.3 K | 27.12
172.6 K | 27.08
176.9 K | 27.2
181.2 K | 27.26
185.5 K | 27.14
189.8 K | 27.14
194.1 K | 27.14
198.3 K | 27.21
202.6 K | 27.44
206.9 K | 27.36
211.2 K | 27.35
215.5 K | 27.48
219.8 K | 27.48
224.1 K | 27.64
228.4 K | 27.65
232.7 K | 27.61
237 K | 27.52
241.3 K | 27.5
245.6 K | 27.95
249.8 K | 27.71
254.1 K | 27.92
258.4 K | 27.8
262.7 K | 27.77
267 K | 27.72
271.3 K | 28.15
275.6 K | 27.76
279.9 K | 28.06
284.2 K | 28.25
288.5 K | 28.11
292.8 K | 28.27
297.1 K | 28.29
301.5 K | 28.22
